For experiment [1], the system named is Human immunodeficiency virus 1. Description: Antiviral activity against VSV-G pseudotyped HIV-1 NL4-3 infected in human U373-MAGI cells assessed as reduction in U5-gag level at 25 to 400 uM after 2 to 72 hrs by qPCR method. It is filed as functional, organism-based.
The test system of experiment [2] is Human immunodeficiency virus 1. Description: Antiviral activity against VSV-G pseudotyped HIV-1 NL4-3 infected in human U373-MAGI cells assessed as Vif mutation at 260 uM incubated for 2 hrs prior to infection measured at 72 hrs post infection by illumina sequencing method (reference value: 19.2%). It is filed as functional.
Experiment [3] concerns Human immunodeficiency virus 1. Description: Antiviral activity against VSV-G pseudotyped HIV-1 NL4-3 infected in human U373-MAGI cells assessed as G to C transversion at 260 uM incubated for 2 hrs prior to infection measured at 72 hrs post infection by illumina sequencing method relative to control. In kind it is functional.
For experiment [4], the system named is Human immunodeficiency virus 1. In words: Antiviral activity against VSV-G pseudotyped HIV-1 NL4-3 infected in human U373-MAGI cells assessed as Gag mutation at 260 uM incubated for 2 hrs prior to infection measured at 72 hrs post infection by illumina sequencing method (reference value: 18.4%). It is filed as functional.
For experiment [5], the system named is Human immunodeficiency virus 1. In words: Antiviral activity against VSV-G pseudotyped HIV-1 NL4-3 infected in human U373-MAGI cells assessed as C to G transversion at 260 uM incubated for 2 hrs prior to infection measured at 72 hrs post infection by illumina sequencing method relative to control. In kind it is functional.
The test system of experiment [6] is Human immunodeficiency virus 1. Description: Antiviral activity against VSV-G pseudotyped HIV-1 NL4-3 infected in human U373-MAGI cells assessed as Pol mutation at 260 uM incubated for 2 hrs prior to infection measured at 72 hrs post infection by illumina sequencing method (reference value: 18.5%). In kind it is functional.
Experiment [7] deals with Human immunodeficiency virus 1. Description: Antiviral activity against VSV-G pseudotyped HIV-1 NL4-3 infected in human U373-MAGI cells assessed as Nef mutation at 260 uM incubated for 2 hrs prior to infection measured at 72 hrs post infection by illumina sequencing method (reference value: 22.6%). In kind it is functional.
Experiment [8] concerns Human immunodeficiency virus 1. In words: Antiviral activity against VSV-G pseudotyped HIV-1 NL4-3 infected in human U373-MAGI cells assessed as increase in frequency of C to G transversion at 260 uM incubated for 2 hrs prior to infection measured at 72 hrs post infection by illumina sequencing method relative to control. It is filed as functional.
Experiment [9] deals with Human immunodeficiency virus 1. Description: Antiviral activity against VSV-G pseudotyped HIV-1 NL4-3 infected in human U373-MAGI cells assessed as reduction in gag level at 25 to 400 uM after 2 to 72 hrs by qPCR method. It is filed as functional, organism-based. (In general: Quantitative PCR measures a nucleic acid by following its amplification.)
The test system of experiment [10] is Human immunodeficiency virus 1. In words: Antiviral activity against VSV-G pseudotyped HIV-1 NL4-3 infected in human U373-MAGI cells assessed as increase in mutation frequency at 260 uM incubated for 2 hrs prior to infection measured at 72 hrs post infection by illumina sequencing method. In kind it is functional.
The subject of experiment [11] is Human immunodeficiency virus 1. In words: Antiviral activity against VSV-G pseudotyped HIV-1 NL4-3 infected in human U373-MAGI cells assessed as increase in frequency of G to C transversion at 260 uM incubated for 2 hrs prior to infection measured at 72 hrs post infection by illumina sequencing method relative to control. In kind it is functional.
Experiment [12] in a line: Reduction in dCTP level in human U373-MAGI cells at EC75 after 4 hrs by LC-MS/MS analysis relative to control. In kind it is functional. Set-up: scale not given: the % may be the effect or the level left.
Experiment [13] relates to Human immunodeficiency virus 1. Description: Antiviral activity against VSV-G pseudotyped HIV-1 NL4-3 infected in human U373-MAGI cells assessed as Env mutation at 260 uM incubated for 2 hrs prior to infection measured at 72 hrs post infection by illumina sequencing method (reference value: 21.4%). In kind it is functional.
For experiment [14], the system named is Human immunodeficiency virus 1. In words: Antiviral activity against VSV-G pseudotyped HIV-1 NL4-3 infected in human U373-MAGI cells assessed as Pol mutation at 3.8 uM incubated for 2 hrs prior to infection measured at 72 hrs post infection by illumina sequencing method (reference value: 18.5%). It is filed as functional.
Experiment [15] concerns Human immunodeficiency virus 1. In words: Antiviral activity against VSV-G pseudotyped HIV-1 NL4-3 infected in human U373-MAGI cells assessed as reduction in U5-gag level at 0.25 to 8 uM after 2 to 72 hrs by qPCR method. In kind it is functional, organism-based.
In experiment [16] the test system is Human immunodeficiency virus 1. Description: Antiviral activity against VSV-G pseudotyped HIV-1 NL4-3 infected in human U373-MAGI cells assessed as Vif mutation at 3.8 uM incubated for 2 hrs prior to infection measured at 72 hrs post infection by illumina sequencing method (reference value: 19.2%). In kind it is functional.
The subject of experiment [17] is Human immunodeficiency virus 1. In words: Antiviral activity against VSV-G pseudotyped HIV-1 NL4-3 infected in human U373-MAGI cells assessed as Nef mutation at 3.8 uM incubated for 2 hrs prior to infection measured at 72 hrs post infection by illumina sequencing method (reference value: 22.6%). In kind it is functional.
Experiment [18] concerns Human immunodeficiency virus 1. Description: Antiviral activity against VSV-G pseudotyped HIV-1 NL4-3 infected in human U373-MAGI cells assessed as Gag mutation at 3.8 uM incubated for 2 hrs prior to infection measured at 72 hrs post infection by illumina sequencing method (reference value: 18.4%). It is filed as functional.
Experiment [19] deals with Human immunodeficiency virus 1. In words: Antiviral activity against VSV-G pseudotyped HIV-1 NL4-3 infected in human U373-MAGI cells assessed as Env mutation at 3.8 uM incubated for 2 hrs prior to infection measured at 72 hrs post infection by illumina sequencing method (reference value: 21.4%). In kind it is functional.
The test system of experiment [20] is Human immunodeficiency virus 1. Description: Antiviral activity against VSV-G pseudotyped HIV-1 NL4-3 infected in human U373-MAGI cells assessed as reduction in gag level at 0.25 to 8 uM after 2 to 72 hrs by qPCR method. In kind it is functional, organism-based.

The source made the active and inactive calls. The rule behind the calls is not given here.

For the compound `Nc1ncn([C@@H]2O[C@H](CO)[C@@H](O)[C@H]2O)c(=O)n1` [AZACITIDINE], the outcome in experiment [1] and in [9] was Active. For the same compound, the Activity in [2] was found to be 12.8%; in experiment [3] it was 60%; in experiment [4], 17%; in experiment [5], 10%; in experiment [6], 25.8%; in experiment [7], 25.4%. Moreover, the Activity came out at 50% in experiment [12] and 19.1% in experiment [13]. Moreover, the “fold change (FC)” value worked out at 43 in [8], 6.8 in experiment [10] and 67 in [11].
Consider `Nc1ncn([C@H]2C[C@H](O)[C@@H](CO)O2)c(=O)n1` [DECITABINE], for which the Activity in experiment [14] was determined as 26%; in experiment [16], 15.9%; in experiment [17] it was 21.5%; in [18], 16%; in experiment [19], 20.5%; in experiment [12], 50%. Further, the result in experiment [15] and in experiment [20] was Active.

The values are drawn from ChEMBL document CHEMBL3797079, “Synergistic reduction of HIV-1 infectivity by 5-azacytidine and inhibitors of ribonucleotide reductase” (Bioorg Med Chem, 2016).
